Reference: ChEMBL document CHEMBL1136079, “Molecular design, synthesis, and structure-Activity relationships leading to the potent and selective p56(lck) inhibitor BMS-243117” (Bioorg Med Chem Lett, 2003)

Target: Tyrosine-protein kinase Lck (Homo sapiens, UniProt P06239)
Assay: In vitro inhibition of phosphorylation of an exogenous substrate by human p56 Lck tyrosine kinase expressed as a His-tagged protein in insect cells using a baculovirus expression system
Details: not given

Chain of Tyrosine-protein kinase Lck (P06239 whole entry): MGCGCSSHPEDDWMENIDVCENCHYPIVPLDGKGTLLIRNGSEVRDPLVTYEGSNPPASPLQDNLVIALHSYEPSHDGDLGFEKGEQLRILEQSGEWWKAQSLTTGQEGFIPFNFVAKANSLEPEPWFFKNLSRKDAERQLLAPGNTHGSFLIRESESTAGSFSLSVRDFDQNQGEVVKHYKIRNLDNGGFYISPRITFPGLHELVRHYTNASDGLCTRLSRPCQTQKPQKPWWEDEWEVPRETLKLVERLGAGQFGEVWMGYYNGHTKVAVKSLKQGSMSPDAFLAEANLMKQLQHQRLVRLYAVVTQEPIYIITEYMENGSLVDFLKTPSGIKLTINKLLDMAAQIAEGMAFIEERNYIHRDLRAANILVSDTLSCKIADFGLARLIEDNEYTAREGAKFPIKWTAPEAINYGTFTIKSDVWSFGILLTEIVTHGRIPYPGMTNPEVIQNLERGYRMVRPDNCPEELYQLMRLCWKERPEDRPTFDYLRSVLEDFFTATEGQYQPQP

Structure (SMILES) | IC50 [nM]
Cc1cc(C)c(NC(=O)c2ccc3nc(NC(=O)NC(C)(C)C)sc3c2)c(C)c1 | 70
Cc1cc(C)c(NC(=O)c2ccc3nc(NC(=O)OC(C)(C)C)sc3c2)c(C)c1Br | > 12500
Cc1cc(CO)cc(C)c1NC(=O)c1ccc2nc(NC(=O)OC(C)(C)C)sc2c1 | 310
Cc1cccc(Cl)c1NC(=O)c1ccc2nc(NC(=O)NC3CC3)sc2c1 | 90
Cc1cccc(Cl)c1NC(=O)c1ccc2nc(NC(=O)NCc3ccco3)sc2c1 | 39
Cc1cccc(C)c1NC(=O)c1ccc2nc(NC(=O)OC(C)(C)C)sc2c1 | 90
Cc1cc(C)c(NC(=O)c2ccc3nc(NC(=O)NC4CC4)sc3c2)c(C)c1 | 300
Cc1cc(C)c(NC(=O)c2ccc3nc(NC(=O)C(C)C)sc3c2)c(C)c1 | 700
Cc1cc(C)c(NC(=O)c2ccc3nc(N)oc3c2)c(C)c1 | 23000
Cc1cc(C)c(NC(=O)c2cccc3sc(NC(=O)OC(C)(C)C)nc23)c(C)c1 | > 12500
Cc1cc(C)c(NC(=O)c2ccc3nc(NC(=O)OC(C)(C)C)sc3c2)c(C)c1 | 290
Cc1cccc(C)c1NC(=O)c1ccc2nc(NC(=O)C(C)C)sc2c1 | 1800
Cc1cccc(C)c1NC(=O)c1ccc2nc(NC(=O)C3CC3C)sc2c1 (configuration not stated) | 11
CCC(NC(=O)Nc1nc2ccc(C(=O)Nc3c(C)cccc3Cl)cc2s1)c1ccccc1 (configuration not stated) | 19
Cc1cccc(Cl)c1NC(=O)c1ccc2nc(NC(=O)Nc3ncccn3)sc2c1 | > 3130
Cc1ccccc1CC(=O)Nc1nc2ccc(C(=O)Nc3c(C)cccc3Cl)cc2s1 | 565
CC(=O)c1cccc(O)c1NC(=O)c1ccc2nc(NC(=O)OC(C)(C)C)sc2c1 | > 12500
Cc1cccc(Cl)c1NC(=O)c1ccc2nc(NC(=O)NCCN(C)C)sc2c1 | 30
CCCCNC(=O)Nc1nc2ccc(C(=O)Nc3c(C)cc(C)cc3C)cc2s1 | 330
Cc1cc(C)c(NC(=O)c2ccc3nc(NC(=O)NCc4ccccc4)sc3c2)c(C)c1 | 1730
Cc1cccc(Cl)c1NC(=O)c1ccc2nc(NC(=O)Nc3ccccn3)sc2c1 | 2010

Structure (SMILES) | IC50 [nM]
Cc1cc(C)c(NC(=O)c2sc(N)nc2C)c(C)c1 | 3200
Cc1cc(C)c(NC(=O)c2cc(C)c3nc(NC(=O)OC(C)(C)C)sc3c2)c(C)c1 | 5600
Cc1cccc(Cl)c1NC(=O)c1ccc2nc(NC(=O)NCCC3CCCN3C)sc2c1 (configuration not stated) | 7
Cc1cc(C)c(NC(=O)c2ccc3nc(NC(=O)OC(C)(C)C)sc3c2)c(Br)c1 | 200
Cc1cc(C)c(NC(=O)c2ccc3[nH]c(NC(=O)OC(C)(C)C)nc3c2)c(C)c1 | 3230
Cc1cccc(Cl)c1NC(=O)c1ccc2nc(NC(=O)OC(C)(C)C)sc2c1 | 70
Cc1cc(C)c(NC(=O)c2ccc3nc(NC(=O)OC(C)(C)C)oc3c2)c(C)c1 | 7250
Cc1cccc(Cl)c1NC(=O)c1ccc2nc(NC(=O)NCc3ccc(F)cc3)sc2c1 | 87
Cc1cc(C)c(NC(=O)c2ccc3nc(NC(=O)c4ccccc4)sc3c2)c(C)c1 | > 12500
Cc1cc(C)c(NC(=O)c2sc(NC(=O)OC(C)(C)C)nc2C)c(C)c1 | 3000
CCC(C)(C)NC(=O)Nc1nc2ccc(C(=O)Nc3c(C)cccc3C)cc2s1 | 80
Cc1cc(C)c(NC(=O)c2ccc3nc(N)sc3c2)c(C)c1 | 15000
Cc1cccc(Cl)c1NC(=O)c1ccc2nc(NC(=O)NC3CCCC3)sc2c1 | 45
Cc1cccc(C)c1NC(=O)c1ccc2nc(NC(=O)NC(C)(C)C)sc2c1 | 100
Cc1cccc(Cl)c1NC(=O)c1ccc2nc(NC(=O)NC(C)(C)C)sc2c1 | 4
Cc1cccc(Br)c1NC(=O)c1ccc2nc(NC(=O)OC(C)(C)C)sc2c1 | 4270
Cc1cccc(Cl)c1NC(=O)c1ccc2nc(NC(=O)C3CCC3)sc2c1 | 666
Cc1cc(Br)ccc1NC(=O)c1ccc2nc(NC(=O)OC(C)(C)C)sc2c1 | > 12500
COc1cccc(OC)c1NC(=O)c1ccc2nc(NC(=O)OC(C)(C)C)sc2c1 | > 12500
Cc1cc(C)c(NC(=O)c2ccc3sc(NC(=O)OC(C)(C)C)nc3c2)c(C)c1 | > 12500
Cc1cc(Br)cc(C)c1NC(=O)c1ccc2nc(NC(=O)OC(C)(C)C)sc2c1 | 110

Structure (SMILES) | IC50 [nM]
Cc1cccc(Cl)c1NC(=O)c1ccc2nc(NC(=O)C3CC3)sc2c1 | 9
COC(=O)c1cc(C)c(NC(=O)c2ccc3nc(NC(=O)OC(C)(C)C)sc3c2)c(C)c1 | 3120
Cc1cccc(Cl)c1NC(=O)c1ccc2nc(NC(=O)Nc3ccc(F)cc3)sc2c1 | 123
Cc1cccc(C)c1NC(=O)c1ccc2nc(NC(=O)C3CC3)sc2c1 | 15
Cc1cccc(Cl)c1NC(=O)c1ccc2nc(NC(=O)C3CCCO3)sc2c1 (configuration not stated) | 272
Cc1cc(C)c(NC(=O)c2ccc3nc(NC(=O)C4CC4)sc3c2)c(C)c1 | 20
Cc1cc(C)c(NC(=O)c2ccc3nc(NC(=O)OC(C)(C)C)sc3c2)c(Br)c1C | > 12500
Cc1cc(C)c(NC(=O)c2ccc3[nH]c(N)nc3c2)c(C)c1 | > 12500
Cc1cc(C)c(NC(=O)c2ccc3nc(N)sc3n2)c(C)c1 | > 12500
Cc1ccc(C(C)C)c(C)c1NC(=O)c1ccc2nc(NC(=O)OC(C)(C)C)sc2c1 | > 12500
Cc1cccc(Cl)c1NC(=O)c1ccc2nc(NC(=O)NC3CC(C)(C)NC(C)(C)C3)sc2c1 | 4
Cc1cc(C)c(NC(=O)c2cccc3nc(NC(=O)OC(C)(C)C)sc23)c(C)c1 | > 12500
CCC(C)(C)NC(=O)Nc1nc2ccc(C(=O)Nc3c(C)cccc3Cl)cc2s1 | 55
Cc1cc(C)c(NC(=O)c2ccc3nc(NC(=O)OC(C)(C)C)sc3n2)c(C)c1 | > 12500
Cc1cccc(CCO)c1NC(=O)c1ccc2nc(NC(=O)OC(C)(C)C)sc2c1 | > 12500
Cc1cc(C)c(NC(=O)c2ccc3nc(NC(=O)OC(C)(C)C)sc3c2Cl)c(C)c1 | 4400
Cc1cccc(C)c1NC(=O)c1ccc2nc(NC(=O)NC3CC3)sc2c1 | 90
Cc1cc(C)c(NC(=O)c2cc3sc(NC(=O)OC(C)(C)C)nc3cc2Cl)c(C)c1 | > 12500
COc1cc(C(=O)Nc2c(C)cc(C)cc2C)nc2sc(NC(=O)OC(C)(C)C)nc12 | > 12500

System: not listed separately
Assay: Inhibition of anti-CD3, anti-CD28 induced PBL T-cell proliferation
Details: Homo sapiens

Structure (SMILES) | IC50 [nM]
Cc1cccc(Cl)c1NC(=O)c1ccc2nc(NC(=O)NCCC3CCCN3C)sc2c1 (configuration not stated) | 960
Cc1cccc(Cl)c1NC(=O)c1ccc2nc(NC(=O)NC(C)(C)C)sc2c1 | 1100
Cc1cccc(Cl)c1NC(=O)c1ccc2nc(NC(=O)NC3CC(C)(C)NC(C)(C)C3)sc2c1 | 2800
Cc1cccc(Cl)c1NC(=O)c1ccc2nc(NC(=O)C3CC3C)sc2c1 (configuration not stated) | 1580
Cc1cccc(Cl)c1NC(=O)c1ccc2nc(NC(=O)C3CC3CN(C)C)sc2c1 (trans isomer) | 3530
Cc1cccc(Cl)c1NC(=O)c1ccc2nc(NC(=O)C3CC3CO)sc2c1 (trans isomer) | 1450
